Reference: ChEMBL document CHEMBL4811250, “Discovery and Optimization of 2H-1λ2-Pyridin-2-one Inhibitors of Mutant Isocitrate Dehydrogenase 1 for the Treatment of Cancer” (J Med Chem, 2021)

Experiments:
[1] = tested on: Isocitrate dehydrogenase [NADP] cytoplasmic (Homo sapiens), O75874 [R132H]; test: Inhibition of IDH1 R132H mutant (unknown origin) assessed as reduction in NADPH consumption using alpha-KG as substrate at 38 uM incubated for 5 mins by diaphorase/resazurin-coupled system relative to control
Sequence of Isocitrate dehydrogenase [NADP] cytoplasmic (Homo sapiens), O75874 [R132H] (O75874 whole entry R132H): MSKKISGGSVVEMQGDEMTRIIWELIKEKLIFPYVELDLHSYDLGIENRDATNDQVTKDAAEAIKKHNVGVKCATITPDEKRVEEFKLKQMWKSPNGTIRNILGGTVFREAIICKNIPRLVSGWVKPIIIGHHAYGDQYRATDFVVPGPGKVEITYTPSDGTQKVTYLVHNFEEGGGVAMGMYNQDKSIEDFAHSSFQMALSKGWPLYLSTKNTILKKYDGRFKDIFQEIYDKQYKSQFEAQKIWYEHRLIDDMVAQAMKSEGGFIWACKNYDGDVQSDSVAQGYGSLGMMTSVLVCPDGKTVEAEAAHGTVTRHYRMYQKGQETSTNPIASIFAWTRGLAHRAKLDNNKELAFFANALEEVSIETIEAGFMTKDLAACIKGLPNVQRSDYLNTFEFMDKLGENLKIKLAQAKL

[2] = biological target: Isocitrate dehydrogenase [NADP] cytoplasmic (Homo sapiens, UniProt O75874, R132H); test: Inhibition of IDH1 R132H mutant (unknown origin) assessed as reduction in NADPH consumption using alpha-KG as substrate incubated for 5 mins by diaphorase/resazurin-coupled system
Sequence of Isocitrate dehydrogenase [NADP] cytoplasmic (Homo sapiens, UniProt O75874, R132H) (O75874 2-414 R132H limits assumed): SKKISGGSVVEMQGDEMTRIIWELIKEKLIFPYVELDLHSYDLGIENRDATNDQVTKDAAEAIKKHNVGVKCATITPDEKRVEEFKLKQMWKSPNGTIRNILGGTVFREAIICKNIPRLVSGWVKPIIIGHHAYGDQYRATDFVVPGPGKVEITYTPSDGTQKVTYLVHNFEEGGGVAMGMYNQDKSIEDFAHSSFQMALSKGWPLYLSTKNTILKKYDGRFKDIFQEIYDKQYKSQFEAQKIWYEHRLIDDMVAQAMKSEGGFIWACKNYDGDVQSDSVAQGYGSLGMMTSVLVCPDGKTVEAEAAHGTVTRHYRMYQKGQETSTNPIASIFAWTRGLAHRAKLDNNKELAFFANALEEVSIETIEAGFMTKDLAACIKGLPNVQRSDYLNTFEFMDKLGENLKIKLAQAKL

[3] = tested on: Isocitrate dehydrogenase [NADP] cytoplasmic (Homo sapiens), O75874 [R132C]; test: Inhibition of IDH1 R132C mutant (unknown origin) assessed as reduction in NADPH consumption using alpha-KG as substrate at 38 uM incubated for 5 mins by diaphorase/resazurin-coupled system relative to control
Sequence of Isocitrate dehydrogenase [NADP] cytoplasmic (Homo sapiens), O75874 [R132C] (O75874 whole entry R132C): as the sequence (O75874 whole entry R132H) above, with H132C counted along it

[4] = biological target: Isocitrate dehydrogenase [NADP] cytoplasmic (Homo sapiens, UniProt O75874, R132C); test: Inhibition of IDH1 R132C mutant (unknown origin) assessed as reduction in NADPH consumption using alpha-KG as substrate incubated for 5 mins by diaphorase/resazurin-coupled system
Sequence of Isocitrate dehydrogenase [NADP] cytoplasmic (Homo sapiens, UniProt O75874, R132C) (O75874 2-414 R132C limits assumed): as the sequence (O75874 2-414 R132H limits assumed) above, with H131C counted along it

inhibition [1]	IC50 [2]	inhibition [3]	IC50 [4]	Structure (SMILES)
57%	–	42%	–	CC1(C)CC(=O)c2cc(-c3nc(-c4ccc(Cl)cc4)cs3)c(=O)n(-c3ccccc3N)c2C1
71%	–	61%	–	CC1(C)CC(=O)c2cc(-c3nc(-c4ccc(Cl)cc4)cs3)c(=O)n(-c3ccccc3O)c2C1
47%	–	38%	–	CC1(C)CC(=O)c2cc(-c3nc(-c4ccc(Cl)cc4)cs3)c(=O)n(-c3ccccc3)c2C1
96%	270 nM	87%	–	CC1(C)CC(=O)c2cc(-c3nc(-c4ccc(Cl)cc4)cs3)c(=O)n(-c3ccccc3C(F)(F)F)c2C1
38%	–	29%	–	COc1ccc(OC)c(-n2c3c(cc(-c4nc(-c5ccc(Cl)cc5)cs4)c2=O)C(=O)CC3)c1
38%	–	61%	–	CC1(C)CC(=O)c2cc(-c3nc(-c4ccc(Cl)cc4)cs3)c(=O)n(-c3ccccc3OCc3ccccc3)c2C1
47%	–	39%	–	CC1(C)CC(=O)c2cc(-c3nc(-c4ccc(Cl)cc4)cs3)c(=O)n(-c3ccccn3)c2C1
59%	–	67%	–	CC1(C)CC(=O)c2cc(-c3nc(-c4ccc(Cl)cc4)cs3)c(=O)n(-c3ccccc3-c3ccccc3)c2C1
74%	–	64%	–	Cc1ccccc1-n1c2c(cc(-c3nc(-c4ccc(Cl)cc4)cs3)c1=O)C(=O)CC(C)(C)C2
62%	–	61%	–	CC(C)c1ccccc1-n1c2c(cc(-c3nc(-c4ccc(Cl)cc4)cs3)c1=O)C(=O)CC(C)(C)C2
81%	2100 nM	72%	–	COc1cccc(C)c1-n1c2c(cc(-c3nc(-c4ccc(Cl)cc4)cs3)c1=O)C(=O)CC(C)(C)C2
82%	14000 nM	65%	–	COc1c(C(=O)O)cccc1-n1c2c(cc(-c3nc(-c4ccc(Cl)cc4)cs3)c1=O)C(=O)CC(C)(C)C2
65%	–	49%	–	CC1(C)CC(=O)c2cc(-c3nc(-c4ccc(Cl)cc4)cs3)c(=O)n(-c3ccccc3F)c2C1
30%	–	60%	–	CC1(C)CC(=O)c2cc(-c3nc(-c4ccc(Cl)cc4)cs3)c(=O)n(-c3ccccc3Oc3ccccc3)c2C1
–	–	43%	–	COc1cc(C(=O)O)ccc1-n1c2c(cc(-c3nc(-c4ccc(Cl)cc4)cs3)c1=O)C(=O)CC(C)(C)C2
61%	–	53%	–	COc1ccccc1Cn1c2c(cc(-c3nc(-c4ccc(Cl)cc4)cs3)c1=O)C(=O)CC(C)(C)C2
76%	2400 nM	65%	–	COc1ccccc1-n1c2c(cc(-c3nc(-c4ccc(Cl)cc4)cs3)c1=O)C(=O)CC(C)(C)C2
77%	1200 nM	59%	–	COc1ccc(OC)c(-n2c3c(cc(-c4nc(-c5ccccc5)cs4)c2=O)C(=O)CC(C)(C)C3)c1
64%	–	35%	–	COc1cccc(-n2c3c(cc(-c4nc(-c5ccc(Cl)cc5)cs4)c2=O)C(=O)CC(C)(C)C3)c1OC
100%	260 nM	90%	–	CC1(C)CC(=O)c2cc(-c3nc(-c4ccc(Cl)cc4)cs3)c(=O)n(-c3sccc3C#N)c2C1
31%	–	33%	–	CC(C)n1c2c(cc(-c3nc(-c4ccc(Cl)cc4)cs3)c1=O)C(=O)CC(C)(C)C2
56%	–	57%	–	CN(C)c1ccccc1-n1c2c(cc(-c3nc(-c4ccc(Cl)cc4)cs3)c1=O)C(=O)CC(C)(C)C2
83%	1300 nM	70%	–	CC1(C)CC(=O)c2cc(-c3nc(-c4ccc(Cl)cc4)cs3)c(=O)n(-c3ccccc3Cl)c2C1
59%	–	43%	–	CNc1ccccc1-n1c2c(cc(-c3nc(-c4ccc(Cl)cc4)cs3)c1=O)C(=O)CC(C)(C)C2

Further lines, the compound ahead of its results:

Structure (SMILES)	inhibition [1]	IC50 [2]	inhibition [3]	IC50 [4]
COc1ccc(OC)c(-n2c3c(cc(-c4nc(-c5ccc(Cl)cc5)cs4)c2=O)C(=O)NCC3)c1	84%	2300 nM	65%	–
CCc1cccc(CC)c1-n1c(C)c(C(=O)OC)cc(-c2nc(-c3ccc(Cl)cc3)cs2)c1=O	–	> 38000 nM	–	> 38000 nM
COc1ccc(OC)c(-n2c3c(cc(-c4cc(-c5ccccc5)[nH]n4)c2=O)C(=O)CC(C)(C)C3)c1	47%	–	41%	–
COc1ccc(OC)c(-n2c3c(cc(-c4nc(-c5ccc(Cl)cc5)cs4)c2=O)C(=O)CNC3)c1	75%	8000 nM	32%	–
CCCC1CN(C(=O)c2cc(-c3nc(-c4ccc(Cl)cc4)cs3)c(=O)n(-c3c(CC)cccc3CC)c2C=C(C)C)CCN1 (stereo unspecified)	–	130 nM	–	82 nM
COc1ccc(OC)c(-n2c3c(cc(-n4ccc(-c5ccccc5)n4)c2=O)C(=O)CC(C)(C)C3)c1	71%	–	41%	–
COc1ccc(OC)c(-n2c3c(cc(-c4ccn(-c5ccccc5)n4)c2=O)C(=O)CC(C)(C)C3)c1	84%	3100 nM	46%	–
COc1ccc(OC)c(-n2c3c(cc(-c4nc5cc(Cl)ccc5s4)c2=O)C(=O)CC(C)(C)C3)c1	–	> 38000 nM	–	> 38000 nM
COc1ccc(OC)c(-n2c3c(cc(-n4cnc(-c5ccccc5)c4)c2=O)C(=O)CC(C)(C)C3)c1	59%	–	44%	–
CCc1cccc(CC)c1-n1c(C)c(C(=O)N2CCCCC2)cc(-c2nc(-c3ccc(Cl)cc3)cs2)c1=O	51%	–	65%	–
COc1ccc(OC)c(-n2c3c(cc(-c4cccc(-c5ccc(Cl)cc5)n4)c2=O)C(=O)CC(C)(C)C3)c1	67%	–	46%	–
CCc1cccc(CC)c1-n1c(C)c(C(=O)O)cc(-c2nc(-c3ccc(Cl)cc3)cs2)c1=O	102%	7200 nM	72%	–
CCc1cccc(CC)c1-n1c(C)c(C(=O)NC(C)(C)C)cc(-c2nc(-c3ccc(Cl)cc3)cs2)c1=O	65%	–	49%	–
COc1ccc(OC)c(-n2c3c(cc(-c4nc(-c5ccc(Cl)cc5)cs4)c2=O)C(=O)CCC3)c1	62%	–	43%	–
COc1ccc(OC)c(-n2c3c(cc(-c4c[nH]c(-c5ccccc5)n4)c2=O)C(=O)CC(C)(C)C3)c1	75%	2100 nM	39%	–
CCc1cccc(CC)c1-n1c(C)c(C(=O)NC2CCCCC2)cc(-c2nc(-c3ccc(Cl)cc3)cs2)c1=O	–	> 38000 nM	31%	–
CCc1cccc(CC)c1-n1c(C)c(C(=O)NC(C)C)cc(-c2nc(-c3ccc(Cl)cc3)cs2)c1=O	47%	2800 nM	54%	–
COc1ccc(OC)c(-n2c3c(cc(-c4nc(-c5ccc(Cl)cc5)cs4)c2=O)CCC(C)(C)C3)c1	87%	3600 nM	64%	–
CCc1cccc(CC)c1-n1c(C)c(C(=O)NCc2ccccc2)cc(-c2nc(-c3ccc(Cl)cc3)cs2)c1=O	–	> 38000 nM	41%	–
CCc1cccc(CC)c1-n1c(C)c(C(=O)NC)cc(-c2nc(-c3ccc(Cl)cc3)cs2)c1=O	87%	1500 nM	64%	–
COc1ccc(OC)c(-n2c(=O)c(-c3nc(-c4ccc(Cl)cc4)cs3)cc3c(O)cccc32)c1	35%	–	36%	–
CCc1cccc(CC)c1-n1c(C)c(C(=O)Nc2ccccc2)cc(-c2nc(-c3ccc(Cl)cc3)cs2)c1=O	40%	–	69%	–
